Tested on: P388/0 tumor cells
Experiment: Lymphocytic Leukemia P388/0 Test
Assay type: in vivo, CD2-F₁ mice
Conditions: for LD₂₀: CD2-F₁ mice, intraperitoneally on days 1, 5 and 9; for 30 DAY Survivors: at the optimal dose, survivors out of 6 animals per dose level group; for T/C x 100% (Excluding 30 Day Survivors): ratio of median survival time treated/control at the optimal dose, i.p. days 1, 5, 9, criterion for activity T/C x 100 ≧120%
Text: Methods for evaluating the antitumor activity of these compounds are essentially those used in the Tumor Panel by the Development Therapeutics Program, Division of Cancer Treatment, National Cancer Institute, A. Goldin, et al., Methods in Cancer Research, Vol. XVI, p. 165, Academic Press (1979). Some modifications, in dose level and schedule have been made to increase the testing efficiency.
CD2-F₁ mice, of the same sex weighing within 20±3g, are used for this test. Control and test animals are injected intraperitoneally with a suspension of 10⁶ viable P388/0 tumor cells on day 0. In each test several dose levels which bracket the LD₂₀ for the compound are evaluated; each dose level group contains 6 animals. The test compounds are prepared either in physiologic saline containing 0.05% Tween 80 or distilled water containing 5% dextrose and are administered intraperitoneally on days, 1, 5, and 9 relative to tumor implant. Doses are on a mg/kg basis according to individual animals' body weights. the day of death for each animal is recorded, the median identified for each group and the ratios of median survival time for treated (T)/control (C) groups are calculated. The criterion for activity is T/C x 100 ≧120%.

Molecule	LD₂₀ [mg/kg]	30 DAY Survivors	T/C x 100% (Excluding 30 Day Survivors)
CC(CO)(CO)NCc1cc2oc3ccccc3c2c2ccccc12 [Example 3B, 2-((Benzo[b]naphtho[1,2-d]furan-5-ylmethyl)amino)-2-methyl-1,3-propanediol methanesulfonate]	10	2/6	+230%
CC(CO)(CO)NCc1cc2c3ccccc3sc2c2ccccc12 [Example 1, 2-((Benzo[b]naphtho [2,1-d]thiophen-5-ylmethyl)amino)-2-methyl-1,3-propanediol methanesulfonate]	35	1/6	+210%
2-Methyl-2-[[(7-methyl-7-H-benzo[c]carbazol-10-yl) methyl]amino-1,3-propanediol hydrochloride 3/10 hydrate [Example 4C]	55	6/6	no deaths
CC(CO)(CO)NCc1cccc2cc3c(cc12)oc1ccccc13 [Example 6B, 2-[(Benzo[b]naphthol[2,3-d]furan-7-ylmethyl)amino]-2-methyl-1,3-propanediol methanesulphonate 1/4 hydrate]	35	0/6	+210%
CC(CO)(CO)NCc1cc2c3ccccc3oc2c2ccccc12 [Example 5B]	100	4/6	+255%
CC(CO)(CO)NCc1c2ccccc2cc2c1oc1ccccc12 [Example 2B, 2-((Benzo[b]naphtho[2,3-d]furan-6-ylmethyl)amino]2-methyl-1,3-propanediol methanesulfonate]	125	1/6	+204%

From patent publication EP0182608B1, “Polycyclic compounds, their preparation and formulations containing them” (priority 1984, dated 1986)
